15 compounds from ChEMBL document CHEMBL1133982, “Selective heterocyclic amidine inhibitors of human inducible nitric oxide synthase” (Bioorg Med Chem Lett, 2001) can be followed below.

For test [1], the target named is T1, Nitric oxide synthase 1 (Homo sapiens, UniProt P29475). Briefly: Inhibition of Neuronal nitric oxide synthase.
Test [2] addresses T2, Nitric oxide synthase, inducible (Homo sapiens, UniProt P35228). Briefly: Inhibition of inducible nitric oxide synthase.
Another test deals with T3, Nitric oxide synthase 3 (Homo sapiens, UniProt P29474).
T3 sequence (P29474 whole entry): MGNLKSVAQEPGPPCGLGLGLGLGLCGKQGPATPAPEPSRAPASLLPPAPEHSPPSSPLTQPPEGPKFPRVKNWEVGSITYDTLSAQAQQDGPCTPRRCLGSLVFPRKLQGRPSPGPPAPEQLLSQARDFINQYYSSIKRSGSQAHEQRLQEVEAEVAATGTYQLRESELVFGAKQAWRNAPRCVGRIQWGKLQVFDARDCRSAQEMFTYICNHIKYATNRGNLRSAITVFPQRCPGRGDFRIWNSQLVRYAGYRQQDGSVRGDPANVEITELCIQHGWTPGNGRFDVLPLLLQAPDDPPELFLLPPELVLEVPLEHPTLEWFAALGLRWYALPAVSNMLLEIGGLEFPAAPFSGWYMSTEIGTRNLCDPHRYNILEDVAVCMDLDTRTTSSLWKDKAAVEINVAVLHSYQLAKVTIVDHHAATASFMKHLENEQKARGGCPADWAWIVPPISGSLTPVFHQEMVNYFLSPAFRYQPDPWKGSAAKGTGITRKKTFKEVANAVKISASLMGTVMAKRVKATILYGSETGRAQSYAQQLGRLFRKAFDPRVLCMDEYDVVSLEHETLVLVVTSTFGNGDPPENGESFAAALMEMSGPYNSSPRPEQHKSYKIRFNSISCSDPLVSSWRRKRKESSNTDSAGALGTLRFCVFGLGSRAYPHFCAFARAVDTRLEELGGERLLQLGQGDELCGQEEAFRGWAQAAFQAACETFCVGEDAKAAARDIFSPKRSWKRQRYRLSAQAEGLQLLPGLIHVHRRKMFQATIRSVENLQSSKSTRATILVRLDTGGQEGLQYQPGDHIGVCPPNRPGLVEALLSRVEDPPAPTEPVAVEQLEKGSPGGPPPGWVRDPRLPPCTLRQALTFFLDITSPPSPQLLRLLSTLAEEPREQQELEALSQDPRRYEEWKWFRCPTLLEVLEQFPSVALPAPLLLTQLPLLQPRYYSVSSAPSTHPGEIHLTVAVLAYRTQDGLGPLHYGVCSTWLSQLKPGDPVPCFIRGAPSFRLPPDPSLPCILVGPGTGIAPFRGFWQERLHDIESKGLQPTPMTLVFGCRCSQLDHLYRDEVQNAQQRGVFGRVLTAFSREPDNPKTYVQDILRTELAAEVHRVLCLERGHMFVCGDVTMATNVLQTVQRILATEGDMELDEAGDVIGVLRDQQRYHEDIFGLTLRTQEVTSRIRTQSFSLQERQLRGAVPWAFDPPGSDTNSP
Briefly: Inhibition of endothelial nitric oxide synthase.

The target in test [3] is T4, Nitric oxide synthase 3 (Homo sapiens) (UniProt P29474).
T4 sequence (whole entry): T3 sequence (P29474 whole entry)
Briefly: Inhibitory activity against Endothelial nitric oxide synthase at 100 uM concentration was determined.

The target in test [4] is T2, Nitric oxide synthase, inducible. Briefly: Inhibitory activity against Inducible nitric oxide synthase at 100 uM concentration was determined.
For test [5], the target named is T1, Nitric oxide synthase 1. Briefly: Inhibitory activity against Neuronal nitric oxide synthase at 100 uM concentration was determined.

pIC50: −log10 of the molar value.

T2 sequence (P35228 whole entry): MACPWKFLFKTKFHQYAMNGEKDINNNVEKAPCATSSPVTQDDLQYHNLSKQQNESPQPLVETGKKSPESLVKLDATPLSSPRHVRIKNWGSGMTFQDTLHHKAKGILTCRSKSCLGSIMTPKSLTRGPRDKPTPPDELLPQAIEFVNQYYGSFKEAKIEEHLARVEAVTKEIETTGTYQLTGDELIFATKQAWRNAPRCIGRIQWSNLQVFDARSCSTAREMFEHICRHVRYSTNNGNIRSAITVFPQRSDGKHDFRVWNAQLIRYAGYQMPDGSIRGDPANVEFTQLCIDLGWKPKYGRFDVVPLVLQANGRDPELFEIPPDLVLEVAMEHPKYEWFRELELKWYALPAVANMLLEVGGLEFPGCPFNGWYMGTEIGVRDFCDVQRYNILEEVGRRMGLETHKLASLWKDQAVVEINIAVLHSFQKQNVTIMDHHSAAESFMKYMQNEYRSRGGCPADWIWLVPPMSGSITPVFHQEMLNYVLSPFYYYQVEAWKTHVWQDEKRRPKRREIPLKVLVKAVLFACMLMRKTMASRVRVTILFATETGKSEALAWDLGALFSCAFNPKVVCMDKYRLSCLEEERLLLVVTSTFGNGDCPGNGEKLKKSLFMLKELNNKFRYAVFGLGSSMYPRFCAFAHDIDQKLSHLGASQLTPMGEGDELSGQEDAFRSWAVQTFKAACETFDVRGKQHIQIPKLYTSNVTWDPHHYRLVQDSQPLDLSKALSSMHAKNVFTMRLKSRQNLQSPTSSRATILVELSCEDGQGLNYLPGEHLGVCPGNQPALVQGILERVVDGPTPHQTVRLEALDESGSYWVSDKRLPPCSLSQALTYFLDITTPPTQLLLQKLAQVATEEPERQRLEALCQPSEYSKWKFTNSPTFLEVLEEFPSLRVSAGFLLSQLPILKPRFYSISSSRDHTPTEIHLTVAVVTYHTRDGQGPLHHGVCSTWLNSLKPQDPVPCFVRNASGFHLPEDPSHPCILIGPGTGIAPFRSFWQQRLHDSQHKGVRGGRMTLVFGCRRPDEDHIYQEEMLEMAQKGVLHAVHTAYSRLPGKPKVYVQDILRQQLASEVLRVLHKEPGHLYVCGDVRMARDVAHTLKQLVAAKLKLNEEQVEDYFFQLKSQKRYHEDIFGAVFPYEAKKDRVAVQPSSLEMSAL
T1 sequence (P29475 whole entry): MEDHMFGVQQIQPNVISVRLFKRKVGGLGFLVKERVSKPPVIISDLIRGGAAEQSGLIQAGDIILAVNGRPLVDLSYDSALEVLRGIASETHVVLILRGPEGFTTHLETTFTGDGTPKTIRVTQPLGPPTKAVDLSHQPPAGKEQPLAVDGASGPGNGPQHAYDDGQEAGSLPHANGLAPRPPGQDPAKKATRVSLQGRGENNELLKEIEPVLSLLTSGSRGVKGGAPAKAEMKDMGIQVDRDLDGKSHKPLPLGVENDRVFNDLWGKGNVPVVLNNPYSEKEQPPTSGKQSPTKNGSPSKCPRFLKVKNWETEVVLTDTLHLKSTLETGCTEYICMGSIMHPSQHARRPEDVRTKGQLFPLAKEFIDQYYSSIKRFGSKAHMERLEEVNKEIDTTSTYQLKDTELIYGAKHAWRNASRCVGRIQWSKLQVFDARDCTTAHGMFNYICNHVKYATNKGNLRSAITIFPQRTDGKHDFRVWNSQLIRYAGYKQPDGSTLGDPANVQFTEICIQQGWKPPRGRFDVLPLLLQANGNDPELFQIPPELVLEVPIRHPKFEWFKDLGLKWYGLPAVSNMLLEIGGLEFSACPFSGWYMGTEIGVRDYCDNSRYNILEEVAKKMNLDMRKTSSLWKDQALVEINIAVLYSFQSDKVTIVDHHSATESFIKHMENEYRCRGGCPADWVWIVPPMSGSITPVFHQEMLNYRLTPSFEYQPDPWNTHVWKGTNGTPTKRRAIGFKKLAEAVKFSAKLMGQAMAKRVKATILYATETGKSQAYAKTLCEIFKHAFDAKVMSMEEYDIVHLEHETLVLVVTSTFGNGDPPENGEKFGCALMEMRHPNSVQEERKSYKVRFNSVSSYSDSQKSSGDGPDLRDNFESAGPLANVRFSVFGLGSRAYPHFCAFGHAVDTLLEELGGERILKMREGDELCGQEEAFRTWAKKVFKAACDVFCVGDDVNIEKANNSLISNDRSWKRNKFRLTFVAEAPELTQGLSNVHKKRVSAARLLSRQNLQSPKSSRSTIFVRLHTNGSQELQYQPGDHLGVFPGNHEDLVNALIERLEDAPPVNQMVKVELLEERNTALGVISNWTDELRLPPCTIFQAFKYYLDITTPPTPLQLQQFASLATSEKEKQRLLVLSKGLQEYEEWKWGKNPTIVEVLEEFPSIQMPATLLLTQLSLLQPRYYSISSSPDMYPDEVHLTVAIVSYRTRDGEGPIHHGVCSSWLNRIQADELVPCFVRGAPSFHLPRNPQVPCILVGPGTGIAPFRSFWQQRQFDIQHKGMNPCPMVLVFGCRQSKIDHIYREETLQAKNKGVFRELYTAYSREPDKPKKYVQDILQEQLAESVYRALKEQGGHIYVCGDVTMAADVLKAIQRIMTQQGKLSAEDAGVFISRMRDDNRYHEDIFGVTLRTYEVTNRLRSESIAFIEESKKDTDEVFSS

Turning to `C/C=C/CC1COCCC(N)=N1` (configuration not stated), the pIC50 – broadly, −log10 of the IC50, conventionally taken in molar units – is 3.97 on Nitric oxide synthase 1 [1], 5.03 in test [2] and 3.15 on Nitric oxide synthase 3.
Compound `CCCCC1CCCCC(N)=N1` (configuration not stated) gave a pIC50 in test [2] of 6.29.
Regarding `CN1CCN=C(N)CC1`, the inhibition (commonly the change of the read-out against control, counted positive when it falls) in test [3] stood at 6.42%; in test [4], 32.1%.
As to `NC1=NCCSCC1`, the pIC50 was 5.17 on Nitric oxide synthase 1 [1], 5.57 in test [2] and 4.36 on Nitric oxide synthase 3.
For `CCCCC1COCCC(N)=N1` (configuration not stated), the negative-log IC50 (pIC50) at Nitric oxide synthase 1 [1] is 4.59; in test [2], 5.61; against Nitric oxide synthase 3, 2.87.
With `NCCC1CCCCC(N)=N1` (configuration not stated), the pIC50 was 6.03 against Nitric oxide synthase 1 [1], 6.15 in test [2] and 4.41 against Nitric oxide synthase 3.
In the case of `NC1=NCCOCC1`, the figures for the pIC50 (against Nitric oxide synthase 1 [1]; in test [2]; against Nitric oxide synthase 3) were 4.75, 4.85 and 4.14, respectively.
As for `CCOC(=O)[C@@H]1CCSCC/C(N)=N\1`, the results for the inhibition (in test [3]; against Nitric oxide synthase 1 [5]; in test [4]) were 2.4%, 13.9% and 55.7%, respectively.
In the same order, the values of `CCOC(=O)[C@@H]1CSCCC(N)=N1` are 8.66%, 84.8% and 70.9%.
As for `CCOC(=O)[C@H]1CSCCC(N)=N1`, the inhibition in test [3] turned out to be 13.9%; at Nitric oxide synthase 1 [5] it was 82.6%; in test [4], 70.9%.
Turning to `N/C1=N/CCCSCC1`, the negative-log IC50 (pIC50) at Nitric oxide synthase 1 [1] is 4.68; in test [2], 4.88; at Nitric oxide synthase 3, 3.73.
On to `N=C1CCOCC(CC[N+](=O)[O-])N1` (configuration not stated), for which the pIC50 on Nitric oxide synthase 1 [1] was 5.20; in test [2], 6.01; at Nitric oxide synthase 3 it was 4.31.
The matching figures for `C/C=C/CC1CCCCC(N)=N1` (configuration not stated): 5.47, 6.05 and 3.69.
As to `NCCC1COCCC(N)=N1` (configuration not stated), the pIC50 against Nitric oxide synthase 1 [1] is 5.08; in test [2], 5.18; on Nitric oxide synthase 3 it was 3.61.
The matching figures for `NC1=NC(CC[N+](=O)[O-])CCCC1` (configuration not stated): 6.47, 6.82 and 5.56.
